Source: PubChem BioAssay (NCI)
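Following 48 hours of exposure in 96-well plates, responses at five concentrations were used to interpolate endpoints linearly. TGI marks complete inhibition of growth.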

Key:
Experiment in all cases: NCI tumour cell line growth inhibition, 48 h
SF-539 CNS = tested on: SF-539 CNS
OVCAR-8 ovarian = tested on: OVCAR-8 ovarian
NCI-H460 lung = tested on: NCI-H460 lung
SNB-78 CNS = tested on: SNB-78 CNS
HOP-62 NSCLC = tested on: HOP-62 NSCLC
NCI-H23 lung = tested on: NCI-H23 lung
ACHN renal = tested on: ACHN renal
SF-268 CNS = tested on: SF-268 CNS
SN12C renal = tested on: SN12C renal
786-0 renal = tested on: 786-0 renal
TK-10 renal = tested on: TK-10 renal
RXF-631 renal = tested on: RXF-631 renal
SR leukemia = tested on: SR leukemia
HCT-15 colon = tested on: HCT-15 colon
DMS 273 small cell lung = tested on: DMS 273 small cell lung
SNB-75 CNS = tested on: SNB-75 CNS
HCT-116 colon = tested on: HCT-116 colon
LXFL 529 NSCLC = tested on: LXFL 529 NSCLC
KM12 colon = tested on: KM12 colon
A549 NSCLC = tested on: A549 NSCLC
SW-620 colon = tested on: SW-620 colon
CCRF-CEM leukemia = tested on: CCRF-CEM leukemia
SK-MEL-2 melanoma = tested on: SK-MEL-2 melanoma
OVCAR-3 ovarian = tested on: OVCAR-3 ovarian
KM20L2 colon = tested on: KM20L2 colon
OVCAR-4 ovarian = tested on: OVCAR-4 ovarian
UACC-257 melanoma = tested on: UACC-257 melanoma
RPMI-8226 leukemia = tested on: RPMI-8226 leukemia
OVCAR-5 ovarian = tested on: OVCAR-5 ovarian
K-562 leukemia = tested on: K-562 leukemia
M19-MEL melanoma = tested on: M19-MEL melanoma
UACC-62 melanoma = tested on: UACC-62 melanoma
MALME-3M melanoma = tested on: MALME-3M melanoma
SNB-19 CNS = tested on: SNB-19 CNS
LOX IMVI melanoma = tested on: LOX IMVI melanoma
M14 melanoma = tested on: M14 melanoma
MOLT-4 leukemia = tested on: MOLT-4 leukemia
XF 498 CNS = tested on: XF 498 CNS
IGROV1 ovarian = tested on: IGROV1 ovarian
SK-MEL-28 melanoma = tested on: SK-MEL-28 melanoma
COLO 205 colon = tested on: COLO 205 colon
HL-60(TB) leukemia = tested on: HL-60(TB) leukemia
UO-31 renal = tested on: UO-31 renal
DMS 114 small cell lung = tested on: DMS 114 small cell lung
SK-OV-3 ovarian = tested on: SK-OV-3 ovarian
HCC-2998 colon = tested on: HCC-2998 colon
U251 CNS = tested on: U251 CNS
HOP-18 NSCLC = tested on: HOP-18 NSCLC
SF-295 CNS = tested on: SF-295 CNS
SK-MEL-5 melanoma = tested on: SK-MEL-5 melanoma
NCI-H226 lung = tested on: NCI-H226 lung
HT29 colon = tested on: HT29 colon
HOP-92 NSCLC = tested on: HOP-92 NSCLC
A498 renal = tested on: A498 renal
RXF 393 renal = tested on: RXF 393 renal
CAKI-1 renal = tested on: CAKI-1 renal
DLD-1 colon = tested on: DLD-1 colon
EKVX NSCLC = tested on: EKVX NSCLC
NCI-H522 lung = tested on: NCI-H522 lung

Work on `COC(=O)[C@H]1COC(=S)N1C(=O)[C@@H](C)[C@H](O)C(C)C` yielded a TGI (SF-539 CNS) greater than 100 µM, a TGI (OVCAR-8 ovarian) greater than 100 µM and a TGI (NCI-H460 lung) greater than 100 µM. For the same compound, the TGI (SNB-78 CNS) was greater than 100 µM, the TGI (HOP-62 NSCLC) was greater than 100 µM and the TGI (NCI-H23 lung) was greater than 100 µM. The TGI (ACHN renal) was greater than 100 µM, the TGI (SF-268 CNS) was greater than 100 µM and the TGI (SN12C renal) was greater than 100 µM. The TGI (786-0 renal) was greater than 100 µM, the TGI (TK-10 renal) was greater than 100 µM and the TGI (RXF-631 renal) was greater than 100 µM. For the same compound, the TGI (SR leukemia) was greater than 100 µM, the TGI (HCT-15 colon) was greater than 100 µM and the TGI (DMS 273 small cell lung) was greater than 100 µM. It also gave a TGI (SNB-75 CNS) greater than 100 µM, a TGI (HCT-116 colon) greater than 100 µM and a TGI (LXFL 529 NSCLC) greater than 100 µM. The TGI (KM12 colon) was greater than 100 µM, the TGI (A549 NSCLC) was greater than 100 µM and the TGI (SW-620 colon) was greater than 100 µM. The TGI (CCRF-CEM leukemia) was greater than 100 µM, the TGI (SK-MEL-2 melanoma) was greater than 100 µM and the TGI (OVCAR-3 ovarian) was greater than 100 µM. The TGI (KM20L2 colon) was greater than 100 µM, the TGI (OVCAR-4 ovarian) was greater than 100 µM and the TGI (UACC-257 melanoma) was greater than 100 µM. For the same compound, the TGI (RPMI-8226 leukemia) was greater than 100 µM, the TGI (OVCAR-5 ovarian) was greater than 100 µM and the TGI (K-562 leukemia) was greater than 100 µM. For the same compound, the TGI (M19-MEL melanoma) was greater than 100 µM, the TGI (UACC-62 melanoma) was greater than 100 µM and the TGI (MALME-3M melanoma) was greater than 100 µM. It also gave a TGI (SNB-19 CNS) greater than 100 µM, a TGI (LOX IMVI melanoma) greater than 100 µM and a TGI (M14 melanoma) greater than 100 µM. For the same compound, the TGI (MOLT-4 leukemia) was greater than 100 µM, the TGI (XF 498 CNS) was greater than 100 µM and the TGI (IGROV1 ovarian) was greater than 100 µM. It also gave a TGI (SK-MEL-28 melanoma) greater than 100 µM, a TGI (COLO 205 colon) greater than 100 µM and a TGI (HL-60(TB) leukemia) greater than 100 µM. It also gave a TGI (UO-31 renal) greater than 100 µM, a TGI (DMS 114 small cell lung) greater than 100 µM and a TGI (SK-OV-3 ovarian) greater than 100 µM. For the same compound, the TGI (HCC-2998 colon) was greater than 100 µM, the TGI (U251 CNS) was greater than 100 µM and the TGI (HOP-18 NSCLC) was greater than 100 µM. It also gave a TGI (SF-295 CNS) greater than 100 µM, a TGI (SK-MEL-5 melanoma) greater than 100 µM and a TGI (NCI-H226 lung) greater than 100 µM. The TGI (HT29 colon) was greater than 100 µM, the TGI (HOP-92 NSCLC) was greater than 100 µM and the TGI (A498 renal) was greater than 100 µM. It also gave a TGI (RXF 393 renal) greater than 100 µM, a TGI (CAKI-1 renal) greater than 100 µM and a TGI (DLD-1 colon) greater than 100 µM. For the same compound, the TGI (EKVX NSCLC) was greater than 100 µM.
In the case of `Nc1nc(NCCOCP(=O)(O)O)c([N+](=O)[O-])c(=O)[nH]1`, the TGI (SF-539 CNS) is reported as greater than 100 µM, the TGI (OVCAR-8 ovarian) is reported as greater than 100 µM and the TGI (NCI-H460 lung) is reported as greater than 100 µM. The TGI (SNB-78 CNS) was greater than 100 µM, the TGI (HOP-62 NSCLC) was greater than 100 µM and the TGI (NCI-H23 lung) was greater than 100 µM. For the same compound, the TGI (ACHN renal) was greater than 100 µM, the TGI (SF-268 CNS) was greater than 100 µM and the TGI (SN12C renal) was greater than 100 µM. For the same compound, the TGI (786-0 renal) was greater than 100 µM, the TGI (TK-10 renal) was greater than 100 µM and the TGI (SR leukemia) was greater than 100 µM. The TGI (DMS 273 small cell lung) was greater than 100 µM, the TGI (SNB-75 CNS) was greater than 100 µM and the TGI (HCT-116 colon) was greater than 100 µM. It also gave a TGI (LXFL 529 NSCLC) greater than 100 µM, a TGI (KM12 colon) greater than 100 µM and a TGI (A549 NSCLC) greater than 100 µM. For the same compound, the TGI (SW-620 colon) was greater than 100 µM, the TGI (CCRF-CEM leukemia) was greater than 100 µM and the TGI (SK-MEL-2 melanoma) was greater than 100 µM. The TGI (OVCAR-3 ovarian) was greater than 100 µM, the TGI (NCI-H522 lung) was greater than 100 µM and the TGI (KM20L2 colon) was greater than 100 µM. It also gave a TGI (UACC-257 melanoma) greater than 100 µM, a TGI (RPMI-8226 leukemia) greater than 100 µM and a TGI (K-562 leukemia) greater than 100 µM. The TGI (M19-MEL melanoma) was greater than 100 µM, the TGI (UACC-62 melanoma) was greater than 100 µM and the TGI (MALME-3M melanoma) was greater than 100 µM. It also gave a TGI (SNB-19 CNS) greater than 100 µM, a TGI (LOX IMVI melanoma) greater than 100 µM and a TGI (M14 melanoma) greater than 100 µM. It also gave a TGI (MOLT-4 leukemia) greater than 100 µM, a TGI (XF 498 CNS) greater than 100 µM and a TGI (IGROV1 ovarian) greater than 100 µM. The TGI (SK-MEL-28 melanoma) was greater than 100 µM, the TGI (COLO 205 colon) was greater than 100 µM and the TGI (HL-60(TB) leukemia) was greater than 100 µM. For the same compound, the TGI (UO-31 renal) was greater than 100 µM, the TGI (SK-OV-3 ovarian) was greater than 100 µM and the TGI (HCC-2998 colon) was greater than 100 µM. It also gave a TGI (U251 CNS) greater than 100 µM, a TGI (HOP-18 NSCLC) greater than 100 µM and a TGI (SF-295 CNS) greater than 100 µM. For the same compound, the TGI (NCI-H226 lung) was greater than 100 µM, the TGI (HT29 colon) was greater than 100 µM and the TGI (HOP-92 NSCLC) was greater than 100 µM. The TGI (RXF 393 renal) was greater than 100 µM, the TGI (DLD-1 colon) was greater than 100 µM and the TGI (EKVX NSCLC) was greater than 100 µM.
For `c1ccc2c(c1)SC(=C1Sc3ccccc3S1)S2`, the TGI (OVCAR-8 ovarian) was greater than 100 µM, the TGI (NCI-H460 lung) was greater than 100 µM and the TGI (SNB-78 CNS) was greater than 100 µM. For the same compound, the TGI (HOP-62 NSCLC) was greater than 100 µM, the TGI (NCI-H23 lung) was greater than 100 µM and the TGI (ACHN renal) was greater than 100 µM. For the same compound, the TGI (SF-268 CNS) was greater than 100 µM, the TGI (SN12C renal) was greater than 100 µM and the TGI (786-0 renal) was greater than 100 µM. For the same compound, the TGI (TK-10 renal) was greater than 100 µM, the TGI (RXF-631 renal) was greater than 100 µM and the TGI (HCT-15 colon) was greater than 100 µM. It also gave a TGI (DMS 273 small cell lung) greater than 100 µM, a TGI (SNB-75 CNS) of 73.3 µM and a TGI (LXFL 529 NSCLC) greater than 100 µM. For the same compound, the TGI (A549 NSCLC) was greater than 100 µM, the TGI (SW-620 colon) was greater than 100 µM and the TGI (CCRF-CEM leukemia) was greater than 100 µM. For the same compound, the TGI (OVCAR-3 ovarian) was greater than 100 µM, the TGI (KM20L2 colon) was greater than 100 µM and the TGI (OVCAR-4 ovarian) was greater than 100 µM. For the same compound, the TGI (K-562 leukemia) was greater than 100 µM, the TGI (M19-MEL melanoma) was greater than 100 µM and the TGI (UACC-62 melanoma) was greater than 100 µM. The TGI (MALME-3M melanoma) was greater than 100 µM, the TGI (SNB-19 CNS) was greater than 100 µM and the TGI (LOX IMVI melanoma) was greater than 100 µM. The TGI (M14 melanoma) was greater than 100 µM, the TGI (MOLT-4 leukemia) was greater than 100 µM and the TGI (XF 498 CNS) was greater than 100 µM. For the same compound, the TGI (IGROV1 ovarian) was greater than 100 µM, the TGI (SK-MEL-28 melanoma) was greater than 100 µM and the TGI (COLO 205 colon) was greater than 100 µM. The TGI (UO-31 renal) was greater than 100 µM, the TGI (DMS 114 small cell lung) was greater than 100 µM and the TGI (SK-OV-3 ovarian) was greater than 100 µM. The TGI (HCC-2998 colon) was greater than 100 µM, the TGI (U251 CNS) was greater than 100 µM and the TGI (HOP-18 NSCLC) was greater than 100 µM. It also gave a TGI (SF-295 CNS) greater than 100 µM, a TGI (HT29 colon) greater than 100 µM and a TGI (HOP-92 NSCLC) greater than 100 µM. The TGI (RXF 393 renal) was greater than 100 µM, the TGI (CAKI-1 renal) was greater than 100 µM and the TGI (DLD-1 colon) was greater than 100 µM. For the same compound, the TGI (EKVX NSCLC) was greater than 100 µM.
